# pEC50: −log10 of the molar value.
# How the values were obtained:
# [1] = Passive transcellular permeability of the compound at pH 7.4 by PAMPA; format: ADME; conditions: read-out: permeability
# Plasmodium falciparum [2] = experiment: Antimalarial activity against chloroquine, mefloquine, pyrimethamine and atovaquone-resistant Plasmodium falciparum TM90-C2B infected in human A+ erythrocytes after 72 hrs by SYBR Green I assay; format: functional, organism-based
# in vitro = conditions: mouse, J774 cells
# Description: Cytotoxicity index, ratio of EC50 for mice (Mus musculus) J774 cells to EC50 for chloroquine, mefloquine, pyrimethamine and atovaquone-resistant Plasmodium falciparum TM90-C2B
# [3] = Half life in mouse liver microsomes; format: ADME, Microsome
# [4] = Half life in human liver microsomes; format: ADME, Microsome
# J774 = experiment: Cytotoxicity against mouse J774 cells; format: cell-based
# physchem = conditions: aqueous, pH 7.4
# Description: Aqueous solubility of the compound at pH 7.4 by HPLC analysis
# Plasmodium falciparum [5] = experiment: Antimalarial activity against chloroquine and pyrimethamine-resistant Plasmodium falciparum W2 infected in human A+ erythrocytes after 72 hrs by SYBR Green I assay; format: functional, organism-based; conditions: W2, 72 h
# [6] = Passive transcellular permeability of the compound at pH 4 by PAMPA; format: ADME; conditions: read-out: permeability
# [7] = Lipophilicity, log D of the compound at pH 7.4; conditions: buffer
structure (smiles),measurement,setting,value
COc1cc2[nH]c(C)c(/C=C/C(=O)OC(C)(C)C)c(=O)c2cc1Cl,Papp,[1],261 ×10⁻⁶ cm/s
same,pEC50,Plasmodium falciparum [2],7.27
same,selectivity ratio,in vitro,> 533
same,half-life,[3],43.9 min
same,half-life,[4],60.3 min
same,pEC50,J774,< 4.54
same,solubility,physchem,5 µM
same,pEC50,Plasmodium falciparum [5],7.21
same,Papp,[6],249 ×10⁻⁶ cm/s
same,logD,[7],1.81

# Source: ChEMBL document CHEMBL1255199, “Endochin optimization: structure-activity and structure-property relationship studies of 3-substituted 2-methyl-4(1H)-quinolones with antimalarial activity” (J Med Chem, 2010)
